Measured values reported in patent US20080139458A1, “Methods of Treatment For Injured or Diseased Joints” (priority 2004, published 2008).
Several values for one entry are separate records, joined by “and”; a condition that tells them apart may be missing. Identical values can stand only once. Like-named read-outs stand apart in the source and are kept apart here. Peptide text beside a SMILES is read from it. * marks the point of attachment. Cbz = O=C(OCc1ccccc1)*; CH2F = FC*

Columns and labels:
[1] = test system: pooled knee joint synovitis (KJS) synovial fluid (SF) aspirates supplemented with purified human lubricin; assay type: biochemical; details: for Change in coefficient of friction Δμ ± S.D.: 37° C., E-64 10 μM, Z-LLL-FMK 20 μM, PMSF 25 μM, EDTA 10 mM, Lubricin = no inhibitor; for Lubricating ability compared to controls without enzyme inhibitors: KJS SF at 24, 48, and 96 hours, P<0.001
Experimental: (§1) The boundary lubricating abilities of protease-treated human lubricin and BSF were measured using a friction apparatus as reported by Davis et al., J. Biomech. Eng. 101:185-192, 1979. Lubricant (200 μL) was applied between a bearing of latex and a ring of polished glass with a contact area of 1.59 cm^2. The latex was oscillated, under a pressure of 0.35×10^6 N/m^2, against the polished glass with an entraining velocity of 0.37 mm/sec. The bearing system was axially loaded within a gimbals system free to rotate around two perpendicular horizontal axes. The friction apparatus recorded displacements of the gimbals system around the vertical loading axis through a linear displacement voltage transducer, where the output was directly proportional to the frictional torque (F). A bearing load of 70 newtons (N) was related to the coefficient of friction (μ) via Amonton's law, F=μN.
(§2) The μ of the lubricant was recorded at room temperature and was preceded by a baseline measurement of μ with normal saline (NS). Lubrication was manifested by a reduction in μ by the lubricant relative to that of NS. Negative Δμ (−Δμ) values indicate lubrication whereas positive Δμ (+Δμ) indicate friction. Addition of 200 μL of lubricant was followed by bringing the bearing surfaces close enough so that the solution wet both surfaces. After 5 min for equilibration, the latex-coated bearing was brought to rest on the glass as it was oscillating. Voltage measurements were recorded at 1, 3, and 5 min. After 5 min, the surfaces were separated for 2 min and then brought back together for three additional 5 min session. The 3 and 5 min μ values of the last two 5 min session were recorded and averaged, and data were later combined with another duplicate experiment providing 8 distinct measurements of μ.
(§3) The SF aspirates from patients diagnosed with a Noyes criteria grade III or IV OA (n=60), with RA (n=20), or with KJS (n=23) were pooled in equal proportions. […] The lubricin-supplemented pooled OA, RA, and KJS SF aspirates were treated at 37° C. and sampled after 24, 48, and 96 hours. The friction analysis of the sampled SF was conducted as described above. Normal human SF was obtained from cartilage allograft donors and was utilized as a control.
(§4) The treatments were performed at 37° C., and SF was sampled at 24, 48, and 96 hours post-treatment. The in vitro friction assay of sampled SF was performed as described above.

[2] = test system: pooled rheumatoid arthritis (RA) synovial fluid (SF) aspirates supplemented with purified human lubricin; assay type: biochemical; details: for Change in coefficient of friction Δμ ± S.D.: 37° C., E-64 10 μM, Z-LLL-FMK 20 μM, PMSF 25 μM, EDTA 10 mM, Lubricin = no inhibitor
Experimental: as §1, §2, §3, §4

[3] = at 24, 48, and 96 hours, P<0.001

Structure (SMILES) | Change in coefficient of friction Δμ ± S.D. ([1]; 0 hrs) | Change in coefficient of friction Δμ ± S.D. ([1]; 24 hrs) | Change in coefficient of friction Δμ ± S.D. ([1]; 48 hrs) | Change in coefficient of friction Δμ ± S.D. ([1]; 96 hrs) | Lubricating ability compared to controls without enzyme inhibitors [1] | average increase in Δμ ([1]; at 24 hours, KJS SF) [%] | average increase in Δμ ([1]; at 48 hours, KJS SF) [%] | average increase in Δμ ([1]; at 96 hours, KJS SF) [%] | Change in coefficient of friction Δμ ± S.D. ([2]; 0 hrs) | Change in coefficient of friction Δμ ± S.D. ([2]; 24 hrs) | Change in coefficient of friction Δμ ± S.D. ([2]; 48 hrs) | Change in coefficient of friction Δμ ± S.D. ([2]; 96 hrs) | Δμ compared to lubricin-supplemented pooled RA SF aspirates [2, 3] | average increase in Δμ ([2]; at 24 hours, RA SF) [%] | average increase in Δμ ([2]; at 48 hours, RA SF) [%] | average increase in Δμ ([2]; at 96 hours, RA SF) [%] | average increase in Δμ [1] | Δμ compared to lubricin-supplemented pooled KJS SF aspirates [1] | average increase in Δμ [2] | Δμ compared to lubricin-supplemented pooled RA SF aspirates [2]
CC(C)C[C@H](NC(=O)[C@H]1O[C@@H]1C(=O)O)C(=O)NCCCCN=C(N)N (relative stereo) [E-64, L-trans-epoxysuccinyl-leucyl-amido-(4-guanidino)-butane] | −0.059 ± 0.004 | −0.042 ± 0.005 | −0.039 ± 0.007 | −0.034 ± 0.002 | preserved lubricating ability | 32.7 | 38.5 | 42.4 | −0.060 ± 0.002 | −0.053 ± 0.004 | −0.024 ± 0.002 | −0.014 ± 0.004 | significant decrease in Δμ | 11.7 | 60.0 | 76.7 | – | – | – | –
O=C(O)CN(CCN(CC(=O)O)CC(=O)O)CC(=O)O [EDTA] | – | – | – | – | – | – | – | – | – | – | – | – | – | – | – | – | 50.0% and 80.0% and 85.0% | significant (P<0.01) decrease in Δμ | 90.0% and 88.3% and 128.3% | significant decrease in Δμ
O=S(=O)(F)Cc1ccccc1 [PMSF, phenylmethanesulfonyl fluoride] | −0.060 ± 0.001 | −0.033 ± 0.006 | −0.030 ± 0.005 | −0.027 ± 0.005 | preserved lubricating ability | 45.0 | 50.0 | 55.0 | −0.060 ± 0.002 | −0.009 ± 0.009 | −0.008 ± 0.004 | −0.009 ± 0.001 | significant decrease in Δμ | 85.0 | 86.3 | 85.0 | – | – | – | –
CC(C)C[C@H](NC(=O)[C@H](CC(C)C)NC(=O)[C@H](CC(C)C)NC(=O)OCc1ccccc1)C(=O)CF [Z-LLL-FMK, Z-Leu-Leu-Leu-fluoromethyl ketone] (Cbz-Leu-Leu-Leu-CH2F) | −0.060 ± 0.002 | −0.035 ± 0.002 | −0.031 ± 0.003 | −0.028 ± 0.002 | preserved lubricating ability | 41.7 | 48.3 | 53.3 | −0.060 ± 0.002 | −0.049 ± 0.002 | −0.019 ± 0.001 | −0.005 ± 0.003 | significant decrease in Δμ | 18.3 | 68.3 | 91.7 | – | – | – | –
